The source of these data is patent US12011444B2, “N-substituted indole derivatives as PGE2 receptor modulators” (Idorsia Pharmaceuticals Ltd, priority 2015, dated 2024).

The target of one assay is EP2 (Homo sapiens (Human), UniProt P43116).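 Note: antagonism of PGE2-stimulated cAMP accumulation in SF295 human glioblastoma cells with endogenous EP2, cAMP read by HTRF, expressed relative to DMSO control.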
The next assay deals with EP4 (Homo sapiens (Human), UniProt P35408). As to the kind of experiment: hEP4 cAMP assay (BT549 breast cancer cells, HTRF cAMP). The class given is cell-based. To be noted: antagonistic activity; mean values where measured multiple times. On the procedure:
Plate is pre-incubated 45 minutes at room temperature. Subsequently, 2.5 microliters of PGE2 (final conc. 6 nM) are transferred into the assay plate. Plate is incubated 30 minutes at room temperature.
On the technique in general: cAMP levels reflect the balance of adenylyl cyclase and phosphodiesterase activity.

Chain of EP2 (P43116 whole entry): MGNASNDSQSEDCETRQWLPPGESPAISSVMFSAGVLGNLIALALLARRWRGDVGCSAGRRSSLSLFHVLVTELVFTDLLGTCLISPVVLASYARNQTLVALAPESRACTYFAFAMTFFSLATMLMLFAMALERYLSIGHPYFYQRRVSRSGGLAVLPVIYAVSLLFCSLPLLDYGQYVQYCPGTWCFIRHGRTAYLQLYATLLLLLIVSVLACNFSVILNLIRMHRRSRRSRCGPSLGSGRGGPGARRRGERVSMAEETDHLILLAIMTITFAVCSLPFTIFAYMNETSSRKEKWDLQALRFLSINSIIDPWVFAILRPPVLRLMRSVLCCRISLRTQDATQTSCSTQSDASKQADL
Chain of EP4 (P35408 whole entry): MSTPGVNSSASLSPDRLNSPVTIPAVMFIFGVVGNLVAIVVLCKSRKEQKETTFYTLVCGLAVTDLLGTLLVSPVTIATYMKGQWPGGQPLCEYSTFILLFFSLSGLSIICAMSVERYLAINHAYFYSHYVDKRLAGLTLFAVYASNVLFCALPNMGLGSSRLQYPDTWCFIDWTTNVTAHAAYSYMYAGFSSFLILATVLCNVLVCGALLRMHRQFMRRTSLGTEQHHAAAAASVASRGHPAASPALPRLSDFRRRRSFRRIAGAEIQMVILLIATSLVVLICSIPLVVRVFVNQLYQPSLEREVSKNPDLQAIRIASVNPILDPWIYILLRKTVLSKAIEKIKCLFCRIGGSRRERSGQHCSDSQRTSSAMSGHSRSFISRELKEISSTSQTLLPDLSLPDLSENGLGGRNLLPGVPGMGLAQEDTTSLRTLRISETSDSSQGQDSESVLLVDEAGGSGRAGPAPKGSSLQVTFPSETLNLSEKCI
Text for EP2: Human tumor cell lines expressing endogenously either EP4 or EP2 are used and cAMP accumulation in cells upon PGE2 stimulation is monitored. SF295 glioblastoma cells express high endogenous EP2 and no EP4, whereas BT549 breast cancer cells, express high endogenous EP4 levels and very low EP2 levels.
As a detection method for cAMP the HTRF (homogeneous time resolved fluorescence) Cisbio kit (HTRF cAMP dynamic 2 kit 20′000 tests Cisbio Cat. #62AM4PEC) was used, which is based on a competitive immunoassay using a Cryptate-labeled anti-cAMP antibody and d2-labeled cAMP. Native cAMP produced by cells or unlabeled cAMP (for the standard curve) compete with exogenously added d2-labeled cAMP (acceptor) for binding to monoclonal anti-cAMP-Eu3+Cryptate (donor). A FRET signal (Fluorescence Resonance Energy Transfer) is obtained only if the labeled anti-cAMP antibody binds the d2 labelled cAMP, thus the specific signal (i.e. energy transfer) is inversely proportional to the concentration of cAMP in the standard or sample.
The SF295 cells (NCI/No. 0503170) are detached from culture dishes with a cell dissociation buffer (Invitrogen, 13151-014), and collected in growing medium (GM: RPM11640 (Invitrogen 21875)/10% FCS, 1% Penicilin/streptomycin). Cells are counted washed and resuspended in assay buffer (AB; HBSS, 20 mM HEPES, 0.2% BSA; 2 mM IBMX). 4,000 cells in 5 μl of AB are seeded per well of a small volume 384 well plate (black with flat bottom, Greiner 784076).
PGE2 (Cayman 14010, stock solution: 75 μM in DMSO) is used as agonist at 75 nM final concentration, corresponding to EC80.
Two point five microliters of diluted compounds are transferred into the assay plate. Plate is pre-incubated 45 minutes at room temperature. Subsequently, 2.5 microliters of PGE2 (final conc. 75 nM) are transferred into the assay plate. Plate is incubated 30 minutes at room temperature. Five μl of each donor (anti-cAMP cryptate) and acceptor (cAMP-d2) are added and the plate is incubated another hour at room temperature in the dark and then read using a BMG LABTECH PHERAstar reader (Excitation: 337 nm, Emission: 620 and 665 nm).
The obtained Delta F (fluorescence) values (665 nm/620 nM) are converted into % cAMP values using the measurements of the cAMP calibrator provided in the kit. For each compound concentration the percentage of cAMP compared to DMSO control value as average±STDEV (each concentration is measured in duplicate) is calculated.
IC50 values and curves are generated with XLfit software (IDBS) using Dose-Response One Site model 203. When compounds were measured multiple times, mean values are given.

Usually IC50 stands for the concentration needed to halve the response being measured. Take `COc1cc(F)cc2c1cc(C)n2CCNc1cc(-c2cccc(-n3cccn3)c2)ncn1` [compound 726]: the half-maximal inhibitory concentration (IC50) at EP2 is 41 nM; against EP4 it was 388 nM.

Take `COc1cc(F)cc2c1cc(C)n2CCNc1cc(-c2ccc(-c3nc(C)c(C)s3)cc2)ncn1` [Example 760, {6-[4-(4,5-Dimethyl-thiazol-2-yl)-phenyl]-pyrimidin-4-yl}-[2-(6-fluoro-4-methoxy-2-methyl-indol-1-yl)-ethyl]-amine]: the 50% inhibitory concentration (IC50) at EP2 came to 90 nM; against EP4, 795 nM.

For `Cc1nc(CCC(=O)O)oc1-c1ccc(-c2cc(NCCn3c(C)cc4c(C)cc(F)cc43)ncn2)cc1` [compound 647], the IC50 on EP2 stood at 146 nM; on EP4, 302 nM.

With `Cc1cc(F)c(F)c2c1cc(C)n2CCNc1cc(-c2cc(Cl)c(C(=O)O)c(OCC(F)(F)F)c2)ncn1` [compound 724], the IC50 against EP2 was determined as 57 nM; against EP4, 206 nM.

As to `Cc1nc(-c2ccc(-c3cc(NCCn4c(C)cc5c(C)cc(F)cc54)ncn3)cc2)c[nH]1` [compound 548], the IC50 came to 6 nM on EP2 and 61 nM against EP4.

Turning to `CCCCOc1cc(-c2cc(NCCn3c(C)cc4c(OC)ccc(F)c43)ncn2)ccc1C(=O)O` [compound 615], the IC50 on EP2 came to 2 nM; against EP4, 39 nM.

`CCOc1cc(-c2cc(NCCn3c(C)cc4c(C)c(F)c(F)cc43)ncn2)ccc1C(=O)O` [Example 787, 4-{6-[2-(5,6-Difluoro-2,4-dimethyl-indol-1-yl)-ethylamino]-pyrimidin-4-yl}-2-ethoxy-benzoic acid]: the IC50 is 21 nM at EP2 and 729 nM against EP4.

In the case of `COc1ccc(F)c2c1cc(C)n2CCNc1cc(-c2ccc(C(=O)O)c(Oc3ccc(F)cc3)c2)ncn1` [compound 654], the IC50 was 26 nM at EP2 and 313 nM on EP4.

As to `CCOc1cc(-c2cc(NCCn3c(Cl)cc4c(OC)ccc(Cl)c43)ncn2)ccc1C(=O)O` [Example 775, 4-{6-[2-(2,7-Dichloro-4-methoxy-indol-1-yl)-ethylamino]-pyrimidin-4-yl}-2-ethoxy-benzoic acid], the values for the IC50 against EP2 and against EP4 were 10 nM and 206 nM, respectively.

On to `COc1cccc2c1cc(C)n2CCNc1cc(-c2ccc(C(=O)O)c(OCC(C)C)c2)ncn1` [compound 485], for which the IC50 against EP2 was found to be 3 nM; against EP4, 245 nM.

Take `CCOc1cc(-c2cc(NCCn3c(C)cc4c(F)c(F)cc(F)c43)ncn2)ccc1C(=O)O` [compound 449]: the half-maximal inhibitory concentration (IC50) is 4 nM at EP2 and 242 nM against EP4.

Consider `CCCc1cc(-c2cc(NCCn3c(C)cc4c(OC)cc(Cl)cc43)ncn2)cc(Cl)c1C(=O)O` [compound 518], for which the IC50 against EP2 turned out to be 11 nM; at EP4, 40 nM.

As for `COc1ccc(F)c2c1cc(C)n2CCNc1cc(-c2ccc(-c3cc(C)no3)cc2)ncn1` [compound 716, [2-(7-Fluoro-4-methoxy-2-methyl-indol-1-yl)-ethyl]-{6-[4-(3-methyl-isoxazol-5-yl)-phenyl]-pyrimidin-4-yl}-amine], the IC50 against EP2 is 12 nM; on EP4 it was 510 nM.

As for `CCOc1cc(-c2cc(NCCn3c(C)cc4c(OC)c(Cl)cc(F)c43)ncn2)ccc1C(=O)O` [compound 491], the IC50 on EP2 was determined as 765 nM; against EP4 it was 707 nM.

For `CCOc1cc(-c2cc(NCCn3c(C)cc4c(Br)cccc43)ncn2)sc1C(=O)O` [Example 781, 5-{6-[2-(4-Bromo-2-methyl-indol-1-yl)-ethylamino]-pyrimidin-4-yl}-3-ethoxy-thiophene-2-carboxylic acid], the IC50 against EP2 was found to be 1 nM; at EP4 it was 18 nM.

In the case of `CCCOc1cc(-c2cc(NCCn3c(C)cc4c(C)ccc(F)c43)ncn2)ccc1C(=O)O` [compound 441], the IC50 against EP2 came out at 11 nM; against EP4, 113 nM.

Regarding `COc1cccc2c1cc(C)n2CCNc1cc(-c2ccc3c(c2)CN(CC(C)C)C3=O)ncn1` [compound 462], the IC50 against EP2 came to 61 nM; against EP4, 842 nM.

As for `Cc1ccc(F)c2c1cc(C)n2CCNc1cc(-c2ccc(C(=O)O)c(NCC(F)(F)F)c2)ncn1` [compound 560, 4-{6-[2-(7-Fluoro-2,4-dimethyl-indol-1-yl)-ethylamino]-pyrimidin-4-yl}-2-(2,2,2-trifluoro-ethylamino)-benzoic acid], the 50% inhibitory concentration (IC50) came out at 7 nM against EP2 and 107 nM at EP4.

For `COc1cc(F)cc2c1cc(C)n2CCNc1cc(-c2ccc(-c3cc(F)ccn3)cc2)ncn1` [Example 759, [2-(6-Fluoro-4-methoxy-2-methyl-indol-1-yl)-ethyl]-{6-[4-(4-fluoro-pyridin-2-yl)-phenyl]-pyrimidin-4-yl}-amine], the half-maximal inhibitory concentration (IC50) at EP2 amounted to 55 nM; against EP4, 760 nM.

On to `CCCc1cc(-c2cc(NCCn3c(C)cc4c(OC)cccc43)ncn2)cc(F)c1C(=O)O` [compound 445], for which the figures for the IC50 against EP2 and against EP4 were 5 nM and 235 nM, respectively.

Consider `COc1ccc(F)c2c1cc(C)n2CCNc1cc(-c2ccc(C(=O)CC#N)cc2)ncn1` [compound 710, 3-(4-{6-[2-(7-Fluoro-4-methoxy-2-methyl-indol-1-yl)-ethylamino]-pyrimidin-4-yl}-phenyl)-3-oxo-propionitrile], for which the IC50 against EP2 came out at 15 nM; against EP4 it was 373 nM.

As for `CCCOc1cc(-c2cc(NCCn3c(C)cc4c(OC)cccc43)ncn2)cc(F)c1C(=O)O` [compound 498], the half-maximal inhibitory concentration (IC50) stood at 20 nM at EP2 and 609 nM against EP4.

Consider `COc1cc(F)cc2c1cc(C)n2CCNc1cc(-c2cc(Cl)c(C(=O)O)c(OCC(C)C)c2)ncn1` [compound 692], for which the IC50 at EP2 amounted to 7 nM; on EP4 it was 64 nM.

`Cc1cc(F)c(F)c2c1cc(C)n2CCNc1cc(-c2ccc(-c3cnc(N)o3)cc2)ncn1` [compound 577]: the IC50 against EP2 amounted to 114 nM; at EP4 it was 118 nM.

With `COc1ccc(F)c2c1cc(C)n2CCNc1cc(-c2ccc(-c3cc(C(=O)O)[nH]n3)cc2)ncn1` [compound 594], the results for the IC50 against EP2 and against EP4 were 190 nM and 42 nM, respectively.

Consider `COc1ccc(-c2ccc(-c3cc(NCCn4c(C)cc5c(OC)cc(F)cc54)ncn3)cc2)nn1` [Example 756, [2-(6-Fluoro-4-methoxy-2-methyl-indol-1-yl)-ethyl]-{6-[4-(6-methoxy-pyridazin-3-yl)-phenyl]-pyrimidin-4-yl}-amine], for which the values for the IC50 against EP2 and against EP4 were 85 nM and 194 nM, respectively.

`COc1cc(F)cc2c1cc(C)n2CCNc1cc(-c2ccc3c(ccn3C)c2)ncn1` [compound 705, [2-(6-Fluoro-4-methoxy-2-methyl-indol-1-yl)-ethyl]-[6-(1-methyl-1H-indol-5-yl)-pyrimidin-4-yl]-amine]: the results for the IC50 against EP2 and on EP4 were 21 nM and 80 nM, respectively.

As to `CCNc1cc(-c2cc(NCCn3c(C)cc4c(OC)cccc43)ncn2)cc(F)c1C(=O)O` [compound 398], the half-inhibitory concentration (IC50) against EP2 amounted to 3 nM; against EP4, 178 nM.

Turning to `COc1ccc(F)c2c1cc(C)n2CCNc1cc(-c2ccc(-c3nnn[nH]3)s2)ncn1` [Example 793, [2-(7-Fluoro-4-methoxy-2-methyl-indol-1-yl)-ethyl]-{6-[5-(1H-tetrazol-5-yl)-thiophen-2-yl]-pyrimidin-4-yl}-amine], the IC50 is 3 nM against EP2 and 18 nM at EP4.

In the case of `CCCOc1cc(-c2cc(NCCn3c(C)cc4c(F)cc(F)c(F)c43)ncn2)cc(Cl)c1C(=O)O` [compound 620], the IC50 against EP2 came out at 6 nM; against EP4, 561 nM.
